Measurements published in US20240174608A1, “COMPOUNDS FOR BRAIN IMAGING” (The General Hospital Corporation, priority 2021, published 2024).

How the values were obtained:
[1] = tested on: histone deacetylases (HDACs); conditions: at 100 μM; cited from earlier work
[2] = tested on: NAD glycohydrolase (NADase); conditions: at 100 μM; cited from earlier work
[3] = NHP arterial plasma analysis; conditions: baboon
Description: (§2) Atropine 0.05 mg/kg was used intramuscularly to prevent excessive secretion (15 or 30 min of ketamine and xylazine). Anesthesia was induced with intramuscular xylazine (0.5-2.0 mg/kg) and ketamine (10 mg/kg). […] PET/MR images were acquired in a Biograph mMR scanner (Siemens Healthcare, Erlangen, Germany), and PET compatible 8-channel coil arrays for NHP brain imaging with a PET resolution of ˜5 mm at isocenter. Dynamic PET image acquisition was initiated followed by administration of [^11C]8 in a homogeneous solution of 10% ethanol and 90% isotonic saline. A high-resolution structural MRI using [sequence] sequence was acquired about 30 min post-radiotracer administration for anatomical co-registration. Dynamic PET data were acquired and stored in list mode. After corrected for attenuation, scatter, and decay, the PET images were reconstructed using a 3D-OSEM method. […] Volumes of interests were placed referencing the MRI template. Time-activity curves were exported in terms of decay corrected activity at specified time points with gradually increasing intervals. The time-activity curves were expressed as SUV.

[4] = tested on: SIRT1; assay: NHP PET/MR brain imaging; conditions: baboon
Description: as §2

[5] = biological target: T1, SIRT1 (Mus musculus, UniProt Q923E4); assay: Rodent PET/CT baseline imaging and whole body biodistribution; assay type: in vivo; design: from tissue; host or cells: brain and other organs of living C57BL/6 mice; conditions: C57BL/6 mice
T1 sequence (Q923E4 1-737): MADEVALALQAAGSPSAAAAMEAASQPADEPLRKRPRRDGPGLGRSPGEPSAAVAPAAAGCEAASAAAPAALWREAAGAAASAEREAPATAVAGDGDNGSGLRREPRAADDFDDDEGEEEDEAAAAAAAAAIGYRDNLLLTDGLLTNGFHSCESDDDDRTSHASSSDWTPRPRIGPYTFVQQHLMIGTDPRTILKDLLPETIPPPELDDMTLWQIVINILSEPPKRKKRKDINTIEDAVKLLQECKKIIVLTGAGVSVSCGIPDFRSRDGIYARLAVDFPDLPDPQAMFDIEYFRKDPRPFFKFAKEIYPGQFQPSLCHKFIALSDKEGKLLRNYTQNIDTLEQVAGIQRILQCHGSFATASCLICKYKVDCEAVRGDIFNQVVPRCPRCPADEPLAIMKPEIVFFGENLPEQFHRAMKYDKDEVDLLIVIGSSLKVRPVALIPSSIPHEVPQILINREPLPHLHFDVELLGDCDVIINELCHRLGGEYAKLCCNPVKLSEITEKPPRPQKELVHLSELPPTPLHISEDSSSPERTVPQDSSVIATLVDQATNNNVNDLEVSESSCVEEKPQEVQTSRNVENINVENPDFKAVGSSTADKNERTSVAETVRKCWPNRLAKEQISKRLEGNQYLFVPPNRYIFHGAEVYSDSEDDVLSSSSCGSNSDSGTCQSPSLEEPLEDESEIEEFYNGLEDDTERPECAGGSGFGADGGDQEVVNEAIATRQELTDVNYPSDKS
Description: (§1) C57BL/6 mice were used for baseline and blocking studies (25-30 g, male; n=6 for baseline, n=5 for blocking with the pre-treatment of compound 8, and n=6 for blocking with the pre-treatment of Ex-527), and B6SJL wild-type and 5×FAD transgenic mice (20-25 g, male; n=4 for wild-type mice and n=4 for 5×FAD transgenic mice) were included to evaluate the [^11C]8 in a model of AD. All animals were anesthetized with inhalational isoflurane at 3% in a carrier of 2 L/min medical oxygen, and maintained at 2% isoflurane for the duration of the scan. The mice were fixed on the bed of a Triumph Trimodality PET/CT scanner (Gamma Medica, Northridge, CA) in the prone position, and injected with [^11C]8 (150-200 μL, ˜200 μCi) via a lateral tail vein catheterization at the start of PET acquisition. For blocking studies, compound 8 (5 mg/kg, iv) or Ex-527 (5 mg/kg, iv) was injected at 10 min prior to [^11C]8 injection. Dynamic PET acquisition lasted for 60 min and was followed by CT for anatomic coregistration. PET data were reconstructed using a 3D-MLEM method resulting in a full width at half-maximum resolution of 1 mm. Reconstructed images were exported from the scanner in DICOM format along with an anatomic CT. […] Volumes of interests, including the whole brain, striatum, cortex, thalamus, midbrain, cerebellum and brain stem were placed referencing the MRI template software. […] The time-activity curves were expressed as the percentage of injected dose per gram (% ID/g).

[6] = biological target: T1, SIRT1; assay: Rodent PET/CT blocking studies (in vivo specificity); design: from tissue; host or cells: brain and other organs of living C57BL/6 mice; species or system C57BL/6 mice; conditions: for specific binding in brain: at 60 min
Description: as §1

[7] = biological target: T1, SIRT1; assay: PET/CT imaging in 5×FAD transgenic mice (AD model); assay type: in vivo; design: from tissue; host or cells: brain of living 5×FAD transgenic mice; conditions: at 3 min
Description: C57BL/6 mice were used for baseline and blocking studies (25-30 g, male; n=6 for baseline, n=5 for blocking with the pre-treatment of compound 8, and n=6 for blocking with the pre-treatment of Ex-527), and B6SJL wild-type and 5×FAD transgenic mice (20-25 g, male; n=4 for wild-type mice and n=4 for 5×FAD transgenic mice) were included to evaluate the [^11C]8 in a model of AD. All animals were anesthetized with inhalational isoflurane at 3% in a carrier of 2 L/min medical oxygen, and maintained at 2% isoflurane for the duration of the scan. The mice were fixed on the bed of a Triumph Trimodality PET/CT scanner (Gamma Medica, Northridge, CA) in the prone position, and injected with [^11C]8 (150-200 μL, ˜200 μCi) via a lateral tail vein catheterization at the start of PET acquisition. For blocking studies, compound 8 (5 mg/kg, iv) or Ex-527 (5 mg/kg, iv) was injected at 10 min prior to [^11C]8 injection. Dynamic PET acquisition lasted for 60 min and was followed by CT for anatomic coregistration. PET data were reconstructed using a 3D-MLEM method resulting in a full width at half-maximum resolution of 1 mm. Reconstructed images were exported from the scanner in DICOM format along with an anatomic CT. […] The time-activity curves were expressed as the percentage of injected dose per gram (% ID/g).

[8] = baseline whole body biodistribution

| Structure (SMILES) | inhibitory effect on class VII histone deacetylases (HDACs) [1] | inhibitory effect on NAD glycohydrolase (NADase) [2] | arterial plasma radioactivity remaining (of the total radioactivity) ([3]; after 10 min) | parent compound in plasma (stability in plasma over time) ([3]; at 30 min) | uptake in midbrain [4] | uptake in thalamus [4] | peak whole brain uptake ([4]; intravenous) | time to peak concentration in whole brain ([4]; intravenous) | radioactivity in liver and kidney [5, 8] | uptake in blood [5, 8] | BBB penetration ([5]; baseline) | time to reach plateau of brain time course ([5]; baseline) | maximum radioactivity accumulation in the whole brain ([5]; baseline, iv tail vein) | washout ratio % ID/g 5 min / % ID/g 60 min ([5]; baseline, brain) | brain uptake plateau ([6]; at 5 min, pre-treatment with compound 8 (5 mg/kg, iv)) | specific binding in brain ([6]; blocking by pre-treatment with Ex-527 (5 mg/kg, iv) 10 min prior) | specific binding in brain ([6]; self-blocking, pre-treatment with compound 8 (5 mg/kg, iv) 10 min prior) | specific binding in blood, heart and lung ([6]; both blocking experiments) | specific binding in liver and kidney ([6]; both blocking experiments) | brain uptake plateau [7] |
| --- | --- | --- | --- | --- | --- | --- | --- | --- | --- | --- | --- | --- | --- | --- | --- | --- | --- | --- | --- | --- |
| NC(=O)C1CCCc2c1[nH]c1ccc(Cl)cc21 (centres unmarked) [Ex-527] | no inhibitory effect | no inhibitory effect | – | – | – | – | – | – | – | – | – | – | – | – | – | – | – | – | – | – |
| [11CH3]c1ccc2[nH]c3c(c2c1)CCCC3C(N)=O (centres unmarked) [[^11C]8, 6-[^11C]methyl-2,3,4,9-tetrahydro-1H-carbazole-1-carboxamide] | – | – | less than 10% | more than 30% | 4.1 SUV | 3.6 SUV | greater than 2.9 SUV | approximately 4 min | > 10 % ID/g | relatively low uptake | penetrated the BBB | around 5 min | 7.5 % ID/g | 1.01 | 6.0 % ID/g | 62% | 68% | abundant specific binding | No specific binding | 6.3 % ID/g |
